Assay results published in paper PMC7180948, “New Insights into 4-Anilinoquinazolines as Inhibitors of Cardiac Troponin I–Interacting Kinase (TNNi3K)” (Molecules, 2020).

Assays:
Test in all cases: biochemical
Design in all cases: KINOMEscan competition binding panel (Eurofins DiscoverX), single concentration, % inhibition
Conditions in all cases: read-out: 7 at 1 µM % inhibition
SRC = SRC (Homo sapiens, UniProt P12931)
Summary of the method: (§1)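 Selectivity profile from a KINOMEscan run against >400 human kinases; test concentration 1 µM.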

MARK4 = MARK4 (Homo sapiens, UniProt Q96L34)
Summary of the method: as §1

SRPK3 = SRPK3 (Homo sapiens, UniProt Q9UPE1)
Summary of the method: as §1

EGFR(E746-A750del) = EGFR(E746-A750del) (Homo sapiens, UniProt P00533, DEL746-750)
Summary of the method: as §1

PIK3CA(E542K) = PIK3CA(E542K) (Homo sapiens, UniProt P42336, E542K)
Summary of the method: as §1

HUNK = HUNK (Homo sapiens, UniProt P57058)
Summary of the method: as §1

GRK2 = GRK2 (Homo sapiens, UniProt P25098)
Summary of the method: as §1

HIPK4 = HIPK4 (Homo sapiens, UniProt Q8NE63)
Summary of the method: as §1

MST1R = MST1R (Homo sapiens, UniProt Q04912)
Summary of the method: as §1

FLT4 = FLT4 (Homo sapiens, UniProt P35916)
Summary of the method: as §1

FGR = FGR (Homo sapiens, UniProt P09769)
Summary of the method: as §1

CDK8 = CDK8 (Homo sapiens, UniProt P49336)
Summary of the method: as §1

FRK = FRK (Homo sapiens, UniProt P42685)
Summary of the method: as §1

PKN2 = PKN2 (Homo sapiens, UniProt Q16513)
Summary of the method: as §1

INSRR = INSRR (Homo sapiens, UniProt P14616)
Summary of the method: as §1

SIK = biological target: T1, SIK (Homo sapiens, UniProt P57059)
T1 construct: gene SIK1
Summary of the method: as §1

[1] = biological target: T2, ABL1(F317L)-phosphorylated (Homo sapiens, UniProt P00519, F317L)
T2 construct: phosphorylated
Summary of the method: as §1

ANKK1 = ANKK1 (Homo sapiens, UniProt Q8NFD2)
Summary of the method: as §1

WNK2 = WNK2 (Homo sapiens, UniProt Q9Y3S1)
Summary of the method: as §1

DDR2 = DDR2 (Homo sapiens, UniProt Q16832)
Summary of the method: as §1

BTK = BTK (Homo sapiens, UniProt Q06187)
Summary of the method: as §1

ERN1 = ERN1 (Homo sapiens, UniProt O75460)
Summary of the method: as §1

PIK3CB = PIK3CB (Homo sapiens, UniProt P42338)
Summary of the method: as §1

CDK4 = CDK4 (Homo sapiens, UniProt P11802)
Summary of the method: as §1

PKMYT1 = PKMYT1 (Homo sapiens, UniProt Q99640)
Summary of the method: as §1

Chain of PIK3CA(E542K) (P42336 whole entry E542K): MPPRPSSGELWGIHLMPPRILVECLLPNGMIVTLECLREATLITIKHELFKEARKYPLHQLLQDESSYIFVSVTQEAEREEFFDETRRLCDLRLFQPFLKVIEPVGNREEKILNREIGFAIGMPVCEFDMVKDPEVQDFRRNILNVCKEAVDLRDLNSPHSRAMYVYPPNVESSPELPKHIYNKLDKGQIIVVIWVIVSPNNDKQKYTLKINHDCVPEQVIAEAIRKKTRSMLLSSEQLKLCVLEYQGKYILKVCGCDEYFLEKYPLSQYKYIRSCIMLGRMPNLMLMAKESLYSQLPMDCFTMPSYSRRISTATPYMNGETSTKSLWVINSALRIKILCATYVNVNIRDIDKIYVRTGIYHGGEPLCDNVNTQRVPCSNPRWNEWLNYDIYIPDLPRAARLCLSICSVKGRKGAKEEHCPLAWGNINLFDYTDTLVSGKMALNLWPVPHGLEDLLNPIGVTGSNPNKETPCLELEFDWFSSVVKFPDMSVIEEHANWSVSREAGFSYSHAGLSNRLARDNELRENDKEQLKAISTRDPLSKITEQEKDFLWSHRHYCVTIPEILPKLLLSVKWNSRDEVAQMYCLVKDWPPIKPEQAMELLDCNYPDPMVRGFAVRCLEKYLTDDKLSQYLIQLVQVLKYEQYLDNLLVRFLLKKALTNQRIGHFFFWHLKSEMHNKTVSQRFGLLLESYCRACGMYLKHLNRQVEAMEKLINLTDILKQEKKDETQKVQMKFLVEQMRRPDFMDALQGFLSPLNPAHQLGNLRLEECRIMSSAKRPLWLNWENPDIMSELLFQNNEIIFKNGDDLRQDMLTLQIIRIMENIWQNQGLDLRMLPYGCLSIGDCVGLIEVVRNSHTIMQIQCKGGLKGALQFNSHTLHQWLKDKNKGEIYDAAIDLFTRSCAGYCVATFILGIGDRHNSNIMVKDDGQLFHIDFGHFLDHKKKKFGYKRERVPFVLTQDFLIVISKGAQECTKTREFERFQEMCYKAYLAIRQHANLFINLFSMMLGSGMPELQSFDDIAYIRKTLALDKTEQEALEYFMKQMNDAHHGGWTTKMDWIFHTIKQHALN
Chain of PIK3CB (P42338 whole entry): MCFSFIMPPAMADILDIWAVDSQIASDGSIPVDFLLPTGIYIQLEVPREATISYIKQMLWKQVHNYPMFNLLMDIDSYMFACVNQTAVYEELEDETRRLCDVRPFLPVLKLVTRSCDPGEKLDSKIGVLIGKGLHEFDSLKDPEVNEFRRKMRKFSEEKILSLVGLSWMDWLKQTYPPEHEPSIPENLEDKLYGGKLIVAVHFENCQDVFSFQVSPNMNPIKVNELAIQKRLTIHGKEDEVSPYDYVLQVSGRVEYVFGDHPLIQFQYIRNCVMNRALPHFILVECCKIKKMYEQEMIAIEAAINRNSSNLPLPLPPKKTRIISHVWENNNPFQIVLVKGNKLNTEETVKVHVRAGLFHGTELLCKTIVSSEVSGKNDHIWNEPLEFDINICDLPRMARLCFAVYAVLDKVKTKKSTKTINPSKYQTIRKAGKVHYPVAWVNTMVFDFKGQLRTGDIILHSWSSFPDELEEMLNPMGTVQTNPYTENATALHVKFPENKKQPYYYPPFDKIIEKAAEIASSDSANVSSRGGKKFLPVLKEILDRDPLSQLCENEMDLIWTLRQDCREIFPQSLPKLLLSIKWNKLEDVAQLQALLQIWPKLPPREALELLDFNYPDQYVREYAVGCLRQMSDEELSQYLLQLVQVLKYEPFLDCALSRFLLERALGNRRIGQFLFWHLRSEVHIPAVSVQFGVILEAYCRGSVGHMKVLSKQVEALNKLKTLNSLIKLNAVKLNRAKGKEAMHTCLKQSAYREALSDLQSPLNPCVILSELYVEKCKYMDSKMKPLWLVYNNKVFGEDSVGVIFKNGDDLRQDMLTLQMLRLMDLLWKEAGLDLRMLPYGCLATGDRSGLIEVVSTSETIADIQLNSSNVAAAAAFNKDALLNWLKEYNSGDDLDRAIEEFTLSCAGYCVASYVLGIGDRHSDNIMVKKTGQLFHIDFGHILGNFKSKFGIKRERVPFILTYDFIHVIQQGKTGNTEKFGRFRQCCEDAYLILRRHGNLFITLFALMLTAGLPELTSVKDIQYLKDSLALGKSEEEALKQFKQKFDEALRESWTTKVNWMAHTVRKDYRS
Chain of CDK8 (P49336 whole entry): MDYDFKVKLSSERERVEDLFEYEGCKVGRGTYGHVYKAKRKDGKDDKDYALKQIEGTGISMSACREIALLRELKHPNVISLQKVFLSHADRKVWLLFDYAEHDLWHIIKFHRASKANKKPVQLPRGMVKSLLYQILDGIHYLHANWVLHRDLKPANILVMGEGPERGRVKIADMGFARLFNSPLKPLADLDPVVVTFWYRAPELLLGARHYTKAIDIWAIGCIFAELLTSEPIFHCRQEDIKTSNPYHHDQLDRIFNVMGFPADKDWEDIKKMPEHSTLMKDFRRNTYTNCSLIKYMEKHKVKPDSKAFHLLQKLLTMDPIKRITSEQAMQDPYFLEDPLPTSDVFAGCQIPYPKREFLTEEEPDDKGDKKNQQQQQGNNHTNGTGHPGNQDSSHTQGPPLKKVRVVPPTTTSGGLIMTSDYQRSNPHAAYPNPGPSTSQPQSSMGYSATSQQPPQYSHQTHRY
T2 sequence (P00519 whole entry F317L): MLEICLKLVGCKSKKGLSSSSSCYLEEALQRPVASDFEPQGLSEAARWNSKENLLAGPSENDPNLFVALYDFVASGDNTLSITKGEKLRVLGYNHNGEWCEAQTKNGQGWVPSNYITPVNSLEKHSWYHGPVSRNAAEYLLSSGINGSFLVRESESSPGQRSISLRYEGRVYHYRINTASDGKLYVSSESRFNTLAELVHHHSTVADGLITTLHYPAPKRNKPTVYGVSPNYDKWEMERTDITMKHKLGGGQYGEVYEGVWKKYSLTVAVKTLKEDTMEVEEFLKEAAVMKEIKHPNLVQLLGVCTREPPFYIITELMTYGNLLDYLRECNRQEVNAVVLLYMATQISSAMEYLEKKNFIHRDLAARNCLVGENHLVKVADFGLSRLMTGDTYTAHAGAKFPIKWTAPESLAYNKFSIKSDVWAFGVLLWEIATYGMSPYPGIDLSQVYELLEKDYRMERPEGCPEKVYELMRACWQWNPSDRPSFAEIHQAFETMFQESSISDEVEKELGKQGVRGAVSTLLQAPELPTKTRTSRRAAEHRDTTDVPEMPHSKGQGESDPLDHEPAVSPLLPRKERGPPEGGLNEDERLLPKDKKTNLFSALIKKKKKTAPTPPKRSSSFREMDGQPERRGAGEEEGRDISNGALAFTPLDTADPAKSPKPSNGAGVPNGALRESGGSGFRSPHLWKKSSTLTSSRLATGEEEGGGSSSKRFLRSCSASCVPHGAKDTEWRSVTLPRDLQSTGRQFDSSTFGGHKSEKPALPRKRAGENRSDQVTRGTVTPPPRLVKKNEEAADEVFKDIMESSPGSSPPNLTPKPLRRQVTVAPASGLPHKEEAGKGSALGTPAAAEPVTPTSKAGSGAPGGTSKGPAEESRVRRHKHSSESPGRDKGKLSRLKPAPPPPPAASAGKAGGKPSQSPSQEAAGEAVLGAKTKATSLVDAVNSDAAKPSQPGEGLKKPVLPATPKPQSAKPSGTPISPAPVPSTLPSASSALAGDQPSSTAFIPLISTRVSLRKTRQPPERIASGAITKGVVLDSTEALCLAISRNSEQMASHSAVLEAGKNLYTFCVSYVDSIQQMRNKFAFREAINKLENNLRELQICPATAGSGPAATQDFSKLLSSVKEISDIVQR
Chain of FGR (P09769 whole entry): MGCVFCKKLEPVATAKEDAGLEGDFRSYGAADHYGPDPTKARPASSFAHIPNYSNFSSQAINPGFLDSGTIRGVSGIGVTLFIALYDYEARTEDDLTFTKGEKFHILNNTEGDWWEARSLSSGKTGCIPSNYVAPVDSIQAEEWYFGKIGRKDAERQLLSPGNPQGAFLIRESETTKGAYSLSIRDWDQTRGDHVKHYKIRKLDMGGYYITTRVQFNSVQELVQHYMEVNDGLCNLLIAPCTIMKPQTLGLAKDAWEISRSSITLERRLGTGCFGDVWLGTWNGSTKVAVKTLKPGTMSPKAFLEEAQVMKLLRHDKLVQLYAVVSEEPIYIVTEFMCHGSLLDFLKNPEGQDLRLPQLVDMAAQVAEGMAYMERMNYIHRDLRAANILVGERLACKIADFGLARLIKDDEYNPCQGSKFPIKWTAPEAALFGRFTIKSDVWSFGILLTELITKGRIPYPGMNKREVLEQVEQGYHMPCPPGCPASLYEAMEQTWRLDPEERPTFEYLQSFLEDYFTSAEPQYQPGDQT
Chain of CDK4 (P11802 whole entry): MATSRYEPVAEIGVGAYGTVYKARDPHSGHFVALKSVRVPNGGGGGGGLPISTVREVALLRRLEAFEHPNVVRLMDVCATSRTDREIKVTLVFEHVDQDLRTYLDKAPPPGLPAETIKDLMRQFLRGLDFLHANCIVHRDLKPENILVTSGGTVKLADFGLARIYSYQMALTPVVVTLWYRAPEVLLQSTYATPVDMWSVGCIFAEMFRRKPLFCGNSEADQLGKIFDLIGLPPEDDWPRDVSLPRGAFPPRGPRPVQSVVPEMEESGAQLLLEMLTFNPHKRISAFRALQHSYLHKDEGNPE
Chain of PKMYT1 (Q99640 whole entry): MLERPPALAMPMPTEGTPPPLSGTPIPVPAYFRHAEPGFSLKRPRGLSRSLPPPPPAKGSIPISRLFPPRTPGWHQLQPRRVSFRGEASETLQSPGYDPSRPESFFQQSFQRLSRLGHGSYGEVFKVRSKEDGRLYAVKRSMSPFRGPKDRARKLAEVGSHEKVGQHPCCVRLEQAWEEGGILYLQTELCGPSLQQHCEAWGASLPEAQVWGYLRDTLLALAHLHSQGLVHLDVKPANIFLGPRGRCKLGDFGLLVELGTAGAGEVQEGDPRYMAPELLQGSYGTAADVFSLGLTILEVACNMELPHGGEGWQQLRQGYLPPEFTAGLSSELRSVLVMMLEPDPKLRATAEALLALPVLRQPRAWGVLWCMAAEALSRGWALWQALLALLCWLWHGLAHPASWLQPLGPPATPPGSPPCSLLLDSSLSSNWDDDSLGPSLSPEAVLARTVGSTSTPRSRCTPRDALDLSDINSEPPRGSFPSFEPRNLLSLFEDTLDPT

CNS(=O)(=O)c1ccc(N(C)C)c(Nc2ncnc3cc(OC)c(OC)cc23)c1 [compound 7, 3-((6,7-dimethoxyquinazolin-4-yl)amino)-4-(dimethylamino)-N-methylbenzenesulfonamide]
inhibition at 1 µM (SRC): 0%
inhibition at 1 µM (MARK4): 2%
inhibition at 1 µM (SRPK3): 0%
inhibition at 1 µM (EGFR(E746-A750del)): 25%
inhibition at 1 µM (PIK3CA(E542K)): 17%
inhibition at 1 µM (HUNK): 0%
inhibition at 1 µM (GRK2): 65%
inhibition at 1 µM (HIPK4): 13%
inhibition at 1 µM (MST1R): 3%
inhibition at 1 µM (FLT4): 0%
inhibition at 1 µM (FGR): 0%
inhibition at 1 µM (CDK8): 0%
inhibition at 1 µM (FRK): 0%
inhibition at 1 µM (PKN2): 11%
inhibition at 1 µM (INSRR): 13%
inhibition at 1 µM (SIK): 17%
inhibition at 1 µM [1]: 0%
inhibition at 1 µM (ANKK1): 19%
inhibition at 1 µM (WNK2): 0%
inhibition at 1 µM (DDR2): 41%
inhibition at 1 µM (BTK): 54%
inhibition at 1 µM (ERN1): 0%
inhibition at 1 µM (PIK3CB): 2%
inhibition at 1 µM (CDK4): 0%
inhibition at 1 µM (PKMYT1): 0%
